The source of these data is US20090053751A1, “Chemiluminescent Method and Device for Evaluating the In Vivo Functional State of Phagocytes” (priority 2005, published 2009).

This assay relates to phagocytes. The experiment in a line: Luminol-amplified chemiluminescence (CL) kinetics of zymosan-stimulated diluted whole blood. Format: cell-based, human. On the procedure:
Zymosan-A (Sigma Chemical Co.) was used as a phagocyte-stimulating agent. It was opsonized for 30 min at 37° C. in sample serum (20 mg/mL) and washed twice in 0.9% NaCl. The zymosan suspension in Krebs-Ringer phosphate medium (KRP) was prepared immediately prior to use. KRP was composed of 119 mmol/L NaCl, 4.75 mmol/L KCl, 0.420 mmol/L CaCl2, 1.19 mmol/L MgSO4.7H2O, 16.6 mmol/L sodium phosphate buffer, pH 7.4 and 5.56 mmol/L glucose (De Sole et al., 1983). Luminol (Sigma Chemical Co.) was used to amplify the chemiluminescence activity. A luminol stock solution (10 mmol/L in dimethyl sulfoxide) was stored in a dark place at room temperature and diluted 1:10 (v/v) with KRP just before use. In all experiments, the final concentration of luminol was 100 μmol/L. In some experiments formylmethionyl-leucyl-phenylalanine (fMLP—Sigma Chemical Co.) was used for priming (5 nM) of CL emitting cells. All reagents used were of analytical grade and the water was glass-distilled.
Diluted whole blood (1:100 v/v final dilution) was used to avoid artifacts due to the isolation of PMNs. Peripheral venous blood from human adults was collected in heparinized tubes (20 U/mL). Samples with a total volume of 200 μL contained diluted whole fresh blood, luminol and zymosan in KRP. […] After diluted blood was added, the sample content was mixed and CL measured. […]

Take `CC(=O)Oc1ccccc1C(=O)O` [aspirin]: the “phagocytosis-related parts of the CL response” value (diluted whole blood preincubated at 37° C. for 5 minutes with 1.5 mmol/liter of aspirin, FIG. 6A) was “significant decrease”. For `CSCC[C@H](NC=O)C(=O)N[C@@H](CC(C)C)C(=O)N[C@@H](Cc1ccccc1)C(=O)O` [fMLP, N-formylmethionyl leucyl phenylalanine], the “relative contribution of extracellularly and intracellularly produced ROS (derived kinetic parameters)” value (diluted whole blood preincubated at 37° C. for 5 minutes with 3 nmol/liter fMLP, FIG. 2) is recorded as “more significant for the extracellular ROS production”.
